Values of other authors, collected in patent publication EP0134290A1, “Constant release rate solid dosage theophyllineformulation” (VEREX LABORATORIES, INC., priority 1983, dated 1985).

Settings: similar dose of regular theophylline; published; spread +- 2.1

Cn1c(=O)c2[nH]cnc2n(C)c1=O [regular theophylline, theophylline]
excretion half life: 9.0 h
